Results from EP0641363B1, “DETERGENT COMPOSITIONS CONTAINING COPOLYMERS” (UNILEVER PLC, priority 1992, dated 1993).

Assay: Calcium binding: titration with calcium chloride solution using a calcium-ion-selective electrode; binding constant calculated by the method of Tanford
Experimental: The calcium binding properties of the polymers were measured by titration of the samples with a calcium chloride solution using a calcium-ion-selective electrode of the type Radiometer (Trade Mark) F2112Ca. The calcium binding constant pKCa2+ was calculated by the method of C Tanford in Chapter 8, Multiple Equilibria, Physical Chemistry of Macromolecules, John Wiley, New York, 1961.
Values of pKCa2+ of 4.0 or above represent materials likely to be useful as detergency builders, either alone or in conjunction with other builder materials. The value for sodium tripolyphosphate is 6.0, and any figure higher than this indicates excellent building.

O=P(O)(O)OP(=O)(O)OP(=O)(O)O [sodium tripolyphosphate]
pKCa2+: 6.0
